Calls of active or inactive are those of the source. The calls are words filed in the database; no cut-off is given here.
How the values were obtained:
[1] = tested on: C-X-C chemokine receptor type 4 (Homo sapiens), P61073 [V112A]; experiment: (§1) Inhibition of Mab 12G5 binding to CXCR4 V112A mutant expressed in HEK293 cells; assay type: cell-based
[2] = biological target: C-X-C chemokine receptor type 4 (Homo sapiens, UniProt P61073, V112A); experiment: as §1; assay type: cell-based
[3] = biological target: C-X-C chemokine receptor type 4 (Homo sapiens, UniProt P61073, H203A); experiment: (§2) Inhibition of Mab 12G5 binding to CXCR4 H203A mutant expressed in HEK293 cells; assay type: cell-based
Sequence of C-X-C chemokine receptor type 4 (Homo sapiens, UniProt P61073, H203A) (P61073 whole entry H203A): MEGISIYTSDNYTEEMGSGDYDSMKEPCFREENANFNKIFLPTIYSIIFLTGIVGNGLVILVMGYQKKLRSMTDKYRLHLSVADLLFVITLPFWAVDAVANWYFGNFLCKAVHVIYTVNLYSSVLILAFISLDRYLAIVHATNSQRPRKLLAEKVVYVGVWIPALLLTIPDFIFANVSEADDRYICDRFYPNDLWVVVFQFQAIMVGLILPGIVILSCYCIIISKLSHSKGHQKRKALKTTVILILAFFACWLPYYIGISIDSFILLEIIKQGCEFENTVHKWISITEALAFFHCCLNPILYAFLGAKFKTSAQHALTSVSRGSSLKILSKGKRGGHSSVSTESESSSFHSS

[4] = tested on: C-X-C chemokine receptor type 4 (Homo sapiens), P61073 [H203A]; experiment: as §2; assay type: cell-based
Sequence of C-X-C chemokine receptor type 4 (Homo sapiens), P61073 [H203A] (P61073 whole entry H203A): as above

[5] = biological target: C-X-C chemokine receptor type 4 (Homo sapiens, UniProt P61073, D262A)
Sequence of C-X-C chemokine receptor type 4 (Homo sapiens, UniProt P61073, D262A) (P61073 whole entry D262A): as the sequence (P61073 whole entry H203A) above, with A203H, D262A counted along it

[6] = biological target: T1, C-X-C chemokine receptor type 4 (Homo sapiens, UniProt P61073); experiment: Displacement of [125I]SDF-1alpha form CXCR4 expressed in human MOLT4 cells by scintillation counting; assay type: cell-based; conditions: MOLT-4
T1 sequence (P61073 whole entry): as the sequence (P61073 whole entry H203A) above, with A203H counted along it

[7] = biological target: C-X-C chemokine receptor type 4 (Homo sapiens, UniProt P61073, E275A); experiment: (§3) Inhibition of Mab 12G5 binding to CXCR4 E275A mutant expressed in HEK293 cells; assay type: cell-based
Sequence of C-X-C chemokine receptor type 4 (Homo sapiens, UniProt P61073, E275A) (P61073 whole entry E275A): as the sequence (P61073 whole entry H203A) above, with A203H, E275A counted along it

[8] = tested on: C-X-C chemokine receptor type 4 (Homo sapiens), P61073 [E275A]; experiment: as §3; assay type: cell-based
Sequence of C-X-C chemokine receptor type 4 (Homo sapiens), P61073 [E275A] (P61073 whole entry E275A): as the sequence (P61073 whole entry H203A) above, with A203H, E275A counted along it

[9] = biological target: C-X-C chemokine receptor type 4 (Homo sapiens, UniProt P61073, D171A)
Sequence of C-X-C chemokine receptor type 4 (Homo sapiens, UniProt P61073, D171A) (P61073 whole entry D171A): as the sequence (P61073 whole entry H203A) above, with D171A, A203H counted along it

[10] = tested on: C-X-C chemokine receptor type 4 (Homo sapiens), P61073 [H113A]; conditions: HEK293
Sequence of C-X-C chemokine receptor type 4 (Homo sapiens), P61073 [H113A] (P61073 whole entry H113A): as the sequence (P61073 whole entry H203A) above, with H113A, A203H counted along it

[11] = Cmax in Sprague-Dawley rat at 10 mg/kg, po administered as single dose; assay type: ADME, organism-based; parameters: dose 10 mg/kg, route oral; conditions: in vivo
[12] = biological target: T1, C-X-C chemokine receptor type 4; experiment: Inhibition of Mab 44717 binding to CXCR4 expressed in human MOLT4 cells by FACS analysis; assay type: cell-based; conditions: MOLT-4
[13] = tested on: Human immunodeficiency virus 1; experiment: Antiviral activity against HIV1 X4 infected in human PBMC assessed as inhibition of viral p24 antigen production after 7 to 10 days by ELISA; assay type: functional, organism-based; conditions: Human immunodeficiency virus 1, X4
[14] = tested on: C-X-C chemokine receptor type 4 (Homo sapiens), P61073 [E288A,L290A]; conditions: HEK293
Sequence of C-X-C chemokine receptor type 4 (Homo sapiens), P61073 [E288A,L290A] (P61073 whole entry E288A/L290A): as the sequence (P61073 whole entry H203A) above, with A203H, E288A, L290A counted along it

[15] = tested on: Human immunodeficiency virus 1; experiment: Antiviral activity against HIV1 NL4-3 infected in human PBMC assessed as inhibition of viral p24 antigen production after 7 to 10 days by ELISA; assay type: functional, organism-based; conditions: Human immunodeficiency virus 1, NL4-3
[16] = biological target: T1, C-X-C chemokine receptor type 4; experiment: Inhibition of Mab 12G5 binding to CXCR4 expressed in human MOLT4 cells by FACS analysis; assay type: cell-based; conditions: MOLT-4
[17] = biological target: C-X-C chemokine receptor type 4 (Homo sapiens, UniProt P61073, E277A)
Sequence of C-X-C chemokine receptor type 4 (Homo sapiens, UniProt P61073, E277A) (P61073 whole entry E277A): as the sequence (P61073 whole entry H203A) above, with A203H, E277A counted along it

[18] = tested on: Human immunodeficiency virus 1; experiment: Antiviral activity against HIV1 A018G infected in human PBMC assessed as inhibition of viral p24 antigen production after 7 to 10 days by ELISA; assay type: functional, organism-based; conditions: Human immunodeficiency virus 1, A018G
[19] = biological target: T1, C-X-C chemokine receptor type 4; experiment: Inhibition of Mab 12G5 binding to CXCR4 expressed in human MOLT4 cells at 10 nM by FACS analysis; assay type: cell-based; conditions: MOLT-4
[20] = biological target: T1, C-X-C chemokine receptor type 4; experiment: Inhibition of Mab A80 binding to CXCR4 expressed in human MOLT4 cells by FACS analysis; assay type: cell-based; conditions: MOLT-4
[21] = tested on: Human immunodeficiency virus 1; experiment: Antiviral activity against HIV1 R5 infected in human PBMC assessed as inhibition of viral p24 antigen production after 7 to 10 days by ELISA; assay type: functional, organism-based; conditions: Human immunodeficiency virus 1, R5
[22] = biological target: T1, C-X-C chemokine receptor type 4; experiment: Antagonist activity at CXCR4 expressed in CHO cells assessed as inhibition of SDF1-alpha-induced calcium mobilization by fluorescence assay; assay type: functional, cell-based
[23] = biological target: T1, C-X-C chemokine receptor type 4; experiment: Inhibition of Mab A145 binding to CXCR4 expressed in human MOLT4 cells at 0.1 to 1000 nM by FACS analysis; assay type: cell-based; conditions: MOLT-4
[24] = AUC (0 to 336 hrs) in Sprague-Dawley rat at 10 mg/kg, po administered as single dose; assay type: ADME, organism-based; parameters: time < 336 hr, dose 10 mg/kg, route oral; conditions: plasma
[25] = biological target: T1, C-X-C chemokine receptor type 4; experiment: Inhibition of Mab 12G5 binding to wild type CXCR4 expressed in HEK293 cells; assay type: cell-based
[26] = tested on: Human immunodeficiency virus 1; experiment: Antiviral activity against HIV1 NL4-3 infected in SCID mouse assessed as viral p24 antigen level in spleen at 10 mg/kg, po administered as single dose after 7 days; assay type: functional
[27] = tested on: Human immunodeficiency virus 1; experiment: Antiviral activity against HIV1 JRCSF infected in human PBMC assessed as inhibition of viral p24 antigen production after 7 to 10 days by ELISA; assay type: functional; conditions: Human immunodeficiency virus 1, JRCSF ISOLATE

Sequence of C-X-C chemokine receptor type 4 (Homo sapiens), P61073 [V112A] (P61073 whole entry V112A): as the sequence (P61073 whole entry H203A) above, with V112A, A203H counted along it
Sequence of C-X-C chemokine receptor type 4 (Homo sapiens, UniProt P61073, V112A) (P61073 whole entry V112A): as the sequence (P61073 whole entry H203A) above, with V112A, A203H counted along it

SMILES: CCCN(CCC)CCCCN(C)Cc1ccc(CN(Cc2ncc[nH]2)Cc2nccn2C)cc1.O=C(O)C(O)C(O)C(=O)O
- IC90 [1]: > 10 nM
- IC50 [2]: 2.2 nM
- IC50 [3]: 0.5 nM
- IC90 [4]: 5.3 nM
- IC50 [5]: 1.6 nM
- Activity [6]: Active
- IC50 [7]: 1 nM
- IC90 [8]: 6.4 nM
- IC50 [9]: 3.2 nM
- IC90 [10]: 6.3 nM
- Cmax [11]: 86.3 ng/mL
- inhibition [12]: Dose-dependent effect
- EC50 [13]: 0.33 nM
- IC90 [14]: 7.7 nM
- EC50 [15]: 1.1 nM
- inhibition [16]: Dose-dependent effect
- IC50 [17]: 3.1 nM
- EC50 [18]: 1.3 nM
- inhibition [19]: Active
- inhibition [20]: Dose-dependent effect
- EC50 [21]: > 200 nM
- inhibition [22]: Dose-dependent effect
- inhibition [23]: inactive
- AUC(0-t) at 336 h [24]: 325 ng·h/mL
- IC50 [25]: 2.8 nM
- IC90 [25]: 8.2 nM
- Activity [26]: <5 pg/mL
- EC50 [27]: > 200 nM

From ChEMBL document CHEMBL1649540, “The novel CXCR4 antagonist KRH-3955 is an orally bioavailable and extremely potent inhibitor of human immunodeficiency virus type 1 infection: comparative studies with AMD3100” (Antimicrob Agents Chemother, 2009)
